Activity calls are given as the source filed them. The rule behind the calls is not given here.

Data set [1] concerns Mus musculus. Description: Toxicity in mouse 4T1 cells xenografted […] mouse assessed as decrease in body weight at 3 mg/kg, ip qd for 28 days. The format is organism-based. Set-up: dose 3 mg/kg, route intraperitoneal. To be noted: in vivo, 672 h.
Data set [2] relates to Lewis lung carcinoma cell line. Description: Antitumor activity against mouse LLC cells xenografted in C57BL/6 mouse assessed as tumor growth inhibition at 6 mg/kg, ip qd for 15 days relative to control. It is filed as functional. The note with it: 360 h, route intraperitoneal, read-out: GI.
Data set [3] relates to Mus musculus. Description: Toxicity in mouse LLC cells xenografted C57BL/6 mouse assessed as decrease in body weight at 6 mg/kg, ip qd for 15 days. The format is organism-based. Set-up: dose 6 mg/kg, route intraperitoneal. To be noted: in vivo, 360 h.
The test system of data set [4] is 4T1. Description: Antitumor activity against mouse 4T1 cells xenografted in […] mouse assessed as tumor growth inhibition at 3 mg/kg, ip qd for 28 days relative to control. The note with it: 4T1, ip, 672 h, route intraperitoneal, read-out: GI. It is filed as functional.
Data set [5] relates to Mus musculus. Description: Antimetastatic activity against mouse 4T1 cells xenografted in BALB/c mouse assessed as reduction of myeloid derived suppressor cells accumulation in bone marrow at 3 mg/kg, ip qd for 23 days by flow cytometry analysis relative to control. The format is functional. Also on record: scale not given: the % may be the effect or the level left. The note with it: route intraperitoneal.

The test system of data set [6] is Lewis lung carcinoma cell line. In words: Antimetastatic activity against mouse LLC cells xenografted in C57BL/6 mouse assessed as inhibition of lung metastasis at 6 mg/kg, ip qd for 15 days relative to control. The format is functional, organism-based. Set-up: dose 6 mg/kg.
Data set [7] relates to 4T1. In words: Antimetastatic activity against mouse 4T1 cells xenografted in […] mouse assessed as inhibition of lung metastasis at 3 mg/kg, ip qd for 28 days. The format is functional, organism-based. Also on record: dose 3 mg/kg.
Data set [8] has as its system Mus musculus. In words: Antimetastatic activity against mouse 4T1 cells xenografted in BALB/c mouse assessed as reduction of myeloid derived suppressor cells accumulation in spleen at 3 mg/kg, ip qd for 23 days by flow cytometry analysis relative to control. It is filed as functional. Also on record: scale not given: the % may be the effect or the level left. To be noted: route intraperitoneal.

For `CC(=O)O[C@H]1C(=O)[C@@]2(C)[C@H]([C@H](OC(=O)c3ccccc3)[C@]3(O)C[C@H](OC(=O)[C@H](O)[C@@H](NC(=O)c4ccccc4)c4ccccc4)C(C)=C1C3(C)C)[C@]1(OC(C)=O)CO[C@@H]1C[C@@H]2O` [PACLITAXEL], the Activity result is reported as “Non-toxic” in the data set with Mus musculus [1], “Non-toxic” in the data set with Mus musculus [3], 79.1% in the data set on Mus musculus [5] and 46.7% with Mus musculus [8]. The inhibition in vivo at 6 mg/kg in data set [2] was 26.2%. Further, the inhibition in vivo at 3 mg/kg in the data set on 4T1 [4] amounted to 30.5%. The “growth inhibition (GI)” value (in data set [6]; in the data set with 4T1 [7]) was “inactive” in each case.

These data come from ChEMBL document CHEMBL1773045, “Conjugate (MTC-220) of muramyl dipeptide analogue and paclitaxel prevents both tumor growth and metastasis in mice” (J Med Chem, 2011).
